Structures are written as SMILES.

T1 sequence (P25106 whole entry): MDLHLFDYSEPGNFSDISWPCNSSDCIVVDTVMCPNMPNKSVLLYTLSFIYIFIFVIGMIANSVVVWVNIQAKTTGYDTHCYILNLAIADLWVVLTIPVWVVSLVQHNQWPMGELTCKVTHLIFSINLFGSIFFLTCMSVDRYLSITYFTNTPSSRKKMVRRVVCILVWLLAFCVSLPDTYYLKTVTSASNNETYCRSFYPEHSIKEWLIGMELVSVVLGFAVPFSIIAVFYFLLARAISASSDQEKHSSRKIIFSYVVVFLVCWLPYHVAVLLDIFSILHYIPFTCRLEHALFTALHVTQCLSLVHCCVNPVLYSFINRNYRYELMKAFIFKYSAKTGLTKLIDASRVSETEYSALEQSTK

The assay has as its target T1, NanoLuc-hACKR3 (Homo sapiens, UniProt P25106).
T1 construct: expressed in transfected cells; host or cells: HEK293T (transient, PEI; membrane preparation)
Kind of assay: NanoBRET binding study (displacement of fluorescently labelled CXCL12). The note with it: displacement of 0.3 nM CXCL12-AF647; membranes of HEK293T cells expressing NanoLuc-ACKR3; 1 hour incubation; read-out: Affinity. As to the method: Membranes of HEK293T cells that transiently express the NanoLuc-hACKR3 were produced. 2 million HEK293T cells were seeded per […] dish and were transfected the next day using a DNA/PEI-mix containing 0.25 μg plasmid DNA encoding for the ACKR3, 4.75 μg pcDEF3 plasmid DNA and 30 μg linear PEI. Two days after transfection, cells were collected in PBS and pelleted by centrifugation. Cell pellets were resuspended in ice-cold membrane buffer (15 mM Tris, 0.3 mM EDTA, 2 mM MgCl2, pH 7.4 at 4° C.) and were dounce-homogenized on ice by plunging the pestle […] with 1500 rpm. Cell homogenates were subsequently subjected to two freeze-thaw cycles using liquid nitrogen. Next, the cell homogenates were centrifuged at 40,000 g and pellets were resuspended in Tris-sucrose buffer (20 mM Tris, 250 mM Sucrose, pH 7.4 at 4° C.). Finally, the membrane samples were homogenized using a 23-gauge needle, snap-frozen with liquid nitrogen and stored until further experimentation at −80° C.
Binding reactions were measured in triplicate on white low-volume 384-well plates and started by combining 0.3 nM fluorescently labelled CXCL12 (CXCL12 labelled with a AF647® dye in a molar ratio of dye:peptide of 1:1, purchased from ALMAC, h-SDF-1α (AF647®), cat. No. CAF-11, Sequence:
[…](Ale xa647®)ALN), increasing concentrations of test compound (10^−5 M-10^−11 M) with 35 ng membranes (protein content) per well of HEK293T cells expressing the NanoLuc-ACKR3. All dilutions were prepared in HBSS supplemented with 0.2% BSA. After assembling the binding reaction, the plate was flash-centrifuged at 500 g. Binding reactions were then incubated for 1 hour after which NanoGlo substrate was added (310 times diluted from stock concentration) to a final volume of 13.5 μL. The reaction plate was again pulse-centrifuged to 500 g and the total light intensity was measured for 460 nm wavelength with 80 nm bandwidth and separately for wavelengths ≥610 nm using the PHERAstar-FSX (BMG Labtech, Ortenberg, Germany) with a dual emission filter. The ratio of light intensities (>610 nm over 460 nm) is a measure for the relative binding of CXCL12-A647 to the NanoLuc-ACKR3. The pharmacological data are presented in Appendix 1.
A general note: Bioluminescence resonance energy transfer reports proximity on the nanometre scale.
`O=C(NCC1CCN(C2CCCCC2)CC1)c1cc(-c2ccccc2)on1` [Molecule 2]: the Ki was more than 10 µM.
Turning to `O=C(NCC1CCN(C(=O)C2CC2)CC1)c1cc(-c2ccc(F)cc2F)on1` [Molecule 7], the Ki was more than 10 µM.
As for `O=C(NCC1CCN(C(=O)C2CCC2)CC1)c1cc(-c2ccc(F)cc2F)on1` [Molecule 8], the Ki is more than 10 µM.
Consider `O=C(NCC1CCN(C(=O)C2CCCCC2)CC1)c1cc(-c2ccc(F)cc2F)on1` [Molecule 9], for which the Ki is more than 10 µM.
On to `O=C(NCC1CCN(C(=O)c2cnc3ccccc3n2)CC1)c1cc(-c2ccc(F)cc2F)on1` [Molecule 12], for which the Ki lay in the range of 1 to 10 µM.
In the case of `O=C(NCC1CCN(S(=O)(=O)C2CC2)CC1)c1cc(-c2ccc(F)cc2F)on1` [Molecule 14], the Ki is more than 10 µM.
Take `O=C(NCC1CCN(CC2CCCC2)CC1)c1cc(-c2ccc(F)cc2F)on1` [Molecule 16]: the Ki fell in the range of 0.1 to 1 µM.
Consider `O=C(NCC1CCN(Cc2ccccc2)CC1)c1cc(-c2ccc(F)cc2F)on1` [Molecule 17], for which the Ki is 0.1 to 1 µM.
In the case of `O=C(NCC1CCN(C2CCC2)CC1)c1cc(-c2ccc(F)cc2F)on1` [Molecule 18] it was 0.1 to 1 µM; in that of `O=C(NCC1CCN(C2CCCC2)CC1)c1cc(-c2ccc(F)cc2F)on1` [Molecule 19], 0.1 to 1 µM.
Under `O=C(NCC1CCN(C2CCCCCC2)CC1)c1cc(-c2ccc(F)cc2F)on1` [Molecule 20] stands 0.1 to 1 µM.
With `O=C(NCC1CCN(CC2CCCCC2)CC1)c1cc(-c2ccc(F)cc2F)on1` [Molecule 22], the Ki is 1 to 10 µM.
In the case of `O=C(NCC1CCN(CCc2ccccc2)CC1)c1cc(-c2ccc(F)cc2F)on1` [Molecule 23] it was 0.1 to 1 µM; in that of `O=C(NCC1CCN(CCCc2ccccc2)CC1)c1cc(-c2ccc(F)cc2F)on1` [Molecule 24], not above 0.1 µM; in that of `COc1ccccc1CN1CCC(CNC(=O)c2cc(-c3ccc(F)cc3F)on2)CC1` [Molecule 25], not above 0.1 µM.
Regarding `COc1cccc(CN2CCC(CNC(=O)c3cc(-c4ccc(F)cc4F)on3)CC2)c1` [Molecule 26], the Ki is not above 0.1 µM.
In the case of `COc1ccc(CN2CCC(CNC(=O)c3cc(-c4ccc(F)cc4F)on3)CC2)cc1` [Molecule 27], the Ki is not above 0.1 µM.
With `O=C(NCC1CCN(Cc2ccccn2)CC1)c1cc(-c2ccc(F)cc2F)on1` [Molecule 28], the Ki was 0.1 to 1 µM.
Consider `O=C(NCC1CCN(Cc2cccnc2)CC1)c1cc(-c2ccc(F)cc2F)on1` [Molecule 29], for which the Ki was in the range of 0.1 to 1 µM.
Regarding `O=C(NCC1CCN(Cc2ccncc2)CC1)c1cc(-c2ccc(F)cc2F)on1` [Molecule 30], the Ki lay within 1 to 10 µM.
Consider `CN(C)C(=O)c1cccc(CN2CCC(CNC(=O)c3cc(-c4ccc(F)cc4F)on3)CC2)c1` [Molecule 31], for which the Ki was in the range of 1 to 10 µM.
Consider `O=C(NCC1CCN(c2ccccc2)CC1)c1cc(-c2ccc(F)cc2F)on1` [Molecule 32], for which the Ki is more than 10 µM.
As to `Cc1ccc(CN2CCC(CNC(=O)c3cc(-c4ccc(F)cc4F)on3)CC2)cc1` [Molecule 33], the Ki was not above 0.1 µM.
Regarding `O=C(NCC1CCN(Cc2ccc(Cl)cc2)CC1)c1cc(-c2ccc(F)cc2F)on1` [Molecule 34], the Ki is not above 0.1 µM.
`N#Cc1ccc(CN2CCC(CNC(=O)c3cc(-c4ccc(F)cc4F)on3)CC2)cc1` [Molecule 35]: the Ki is more than 10 µM.
On to `COC(=O)c1ccc(CN2CCC(CNC(=O)c3cc(-c4ccc(F)cc4F)on3)CC2)cc1` [Molecule 36], for which the Ki was not above 0.1 µM.
Take `CN(C)c1ccc(CN2CCC(CNC(=O)c3cc(-c4ccc(F)cc4F)on3)CC2)cc1` [Molecule 37]: the Ki was not above 0.1 µM.
In the case of `O=C(NCC1CCN(Cc2ccc(OC(F)(F)F)cc2)CC1)c1cc(-c2ccc(F)cc2F)on1` [Molecule 38], the Ki was more than 10 µM.
In the case of `CC(=O)Nc1ccc(CN2CCC(CNC(=O)c3cc(-c4ccc(F)cc4F)on3)CC2)cc1` [Molecule 39] it was not above 0.1 µM.
Take `O=C(O)c1ccc(CN2CCC(CNC(=O)c3cc(-c4ccc(F)cc4F)on3)CC2)cc1` [Molecule 40]: the Ki was in the range of 1 to 10 µM.
`CN(C)C(=O)c1ccc(CN2CCC(CNC(=O)c3cc(-c4ccc(F)cc4F)on3)CC2)cc1` [Molecule 41]: the Ki lay within 1 to 10 µM.
Consider `O=C(NCC1CCN(C/C=C/c2ccccc2)CC1)c1cc(-c2ccc(F)cc2F)on1` [Molecule 42], for which the Ki is not above 0.1 µM.
Regarding `O=C(NCC1CCN(Cc2ccc([N+](=O)[O-])cc2)CC1)c1cc(-c2ccc(F)cc2F)on1` [Molecule 43], the Ki is more than 10 µM.
For `O=C(NCC1CCN(CCCCc2ccccc2)CC1)c1cc(-c2ccc(F)cc2F)on1` [Molecule 45], the Ki was not above 0.1 µM.
Under `COc1ccc(CN2CCC(CNC(=O)c3cc(-c4ccc(F)cc4F)on3)CC2)cc1OC` [Molecule 46] stands not above 0.1 µM.
In the case of `COc1cc(CN2CCC(CNC(=O)c3cc(-c4ccc(F)cc4F)on3)CC2)cc(OC)c1OC` [Molecule 47] it was 0.1 to 1 µM.
Under `CS(=O)(=O)c1ccc(CN2CCC(CNC(=O)c3cc(-c4ccc(F)cc4F)on3)CC2)cc1` [Molecule 48] stands 1 to 10 µM.
On to `NS(=O)(=O)c1ccc(CN2CCC(CNC(=O)c3cc(-c4ccc(F)cc4F)on3)CC2)cc1` [Molecule 49], for which the Ki was in the range of 0.1 to 1 µM.
As to `O=C(NCC1CCN(Cc2ccc(O)cc2)CC1)c1cc(-c2ccc(F)cc2F)on1` [Molecule 50], the Ki is not above 0.1 µM.
Consider `O=C(NCC1CCN(Cc2ccc(C(F)(F)F)cc2)CC1)c1cc(-c2ccc(F)cc2F)on1` [Molecule 51], for which the Ki is more than 10 µM.
With `O=C(NCC1CCN(Cc2ccc(F)cc2)CC1)c1cc(-c2ccc(F)cc2F)on1` [Molecule 52], the Ki is 0.1 to 1 µM.
As to `O=C(NCC1CCN(Cc2ccc(Br)cc2)CC1)c1cc(-c2ccc(F)cc2F)on1` [Molecule 53], the Ki is 0.1 to 1 µM.
As to `O=C(NCC1CCN(C/C=C/c2ccccc2)CC1)c1cc(-c2ccc(F)cc2F)n[nH]1` [Molecule 58], the Ki was in the range of 1 to 10 µM.
In the case of `O=C(NCC1CCN(C/C=C/c2ccccc2)CC1)c1cn(-c2ccc(F)cc2F)nn1` [Molecule 61], the Ki was not above 0.1 µM.
Take `O=C(NCC1CCN(C/C=C/c2ccccc2)CC1)c1cnn(-c2ccc(F)cc2F)c1` [Molecule 64]: the Ki is 0.1 to 1 µM.
With `O=C(NCC1CCN(C/C=C/c2ccccc2)CC1)c1cnn(-c2ccc(F)cc2F)n1` [Molecule 68], the Ki was in the range of 1 to 10 µM.
With `O=C(NCC1CCN(C/C=C/c2ccccc2)CC1)c1nnn(-c2ccc(F)cc2F)n1` [Molecule 72], the Ki is 0.1 to 1 µM.
On to `O=C(NCC1CCN(C/C=C/c2ccccc2)CC1)c1nc(-c2ccc(F)cc2F)c[nH]1` [Molecule 77], for which the Ki was 1 to 10 µM.
`O=C(NCC1CCN(C/C=C/c2ccccc2)CC1)c1nc(-c2ccc(F)cc2F)cs1` [Molecule 80]: the Ki is 1 to 10 µM.
As to `O=C(NCC1CCN(C/C=C/c2ccccc2)CC1)c1csc(-c2ccc(F)cc2F)n1` [Molecule 82], the Ki was in the range of 1 to 10 µM.
For the compound `O=C(NCC1CCN(C/C=C/c2ccccc2)CC1)c1ncc(-c2ccc(F)cc2F)s1` [Molecule 85], the Ki was not above 0.1 µM.
In the case of `O=C(NCC1CCN(C/C=C/c2ccccc2)CC1)c1cnc(-c2ccc(F)cc2F)s1` [Molecule 87] it was not above 0.1 µM.
As to `O=C(NCC1CCN(C/C=C/c2ccccc2)CC1)c1nnc(-c2ccc(F)cc2F)s1` [Molecule 89], the Ki is not above 0.1 µM.
Under `O=C(NCC1CCN(C/C=C/c2ccccc2)CC1)c1cc(-c2ccc(F)cc2F)no1` [Molecule 92] stands not above 0.1 µM.
With `O=C(NCC1CCN(C/C=C/c2ccccc2)CC1)c1ncc(-c2ccc(F)cc2F)o1` [Molecule 94], the Ki fell in the range of 0.1 to 1 µM.
With `O=C(NCC1CCN(C/C=C/c2ccccc2)CC1)c1nnc(-c2ccc(F)cc2F)o1` [Molecule 96], the Ki was not above 0.1 µM.
Consider `O=C(NCC1CCN(C/C=C/c2ccccc2)CC1)c1nc(-c2ccc(F)cc2F)no1` [Molecule 99], for which the Ki was 0.1 to 1 µM.

These data come from patent publication US20250170117A1, “MODULATORS OF ACKR3 AND USES THEREOF” (InterAx Biotech AG, priority 2022, published 2025).
